Source: ChEMBL document CHEMBL3045157, “Synthesis and evaluation of in vitro antitubercular activity and antimicrobial activity of some novel 4H-chromeno[2,3-d]pyrimidine via 2-amino-4-phenyl-4H-chromene-3-carbonitriles” (2011)
Converted amounts (≈) assume the structure as drawn.

Assays:
Type in all cases: functional
[1] = system: Mycobacterium tuberculosis; experiment: Antitubercular activity against Mycobacterium tuberculosis H37Rv by agar microdilution method
[2] = system: Staphylococcus aureus; experiment: Antibacterial activity against Staphylococcus aureus ATCC 25923 after 24 hr by serial dilution method; settings: ATCC 25923, 24 h
[3] = system: Pseudomonas aeruginosa; experiment: Antibacterial activity against Pseudomonas aeruginosa MTCC 441 after 24 hr by serial dilution method; settings: MTCC 441, 24 h
[4] = system: Streptococcus pyogenes; experiment: Antibacterial activity against Streptococcus pyogenes MTCC 443 after 24 hr by serial dilution method; settings: MTCC 443, 24 h
[5] = system: Escherichia coli; experiment: Antibacterial activity against Escherichia coli ATCC 25922 after 24 hr by serial dilution method; settings: ATCC 25922, 24 h
[6] = system: Aspergillus niger; experiment: Antifungal activity against Aspergillus niger MTCC 282 after 24 hr by serial dilution method

Compound	MIC [1]	MIC [2]	MIC [3]	MIC [4]	MIC [5]	MIC ([6]; MTCC 282, 24 h)	MIC [6]
S=c1[nH]c2c(c(=S)[nH]1)C(c1ccccc1)c1ccccc1O2 (stereo not given)	500 µg/mL (≈ 1540 µM)	500 µg/mL (≈ 1540 µM)	250 µg/mL (≈ 771 µM)	500 µg/mL (≈ 1540 µM)	250 µg/mL (≈ 771 µM)	1000 µg/mL (≈ 3080 µM)	
Nc1nc(=S)[nH]c2c1C(c1ccccc1)c1ccc3ccccc3c1O2 (stereo not given)	1000 µg/mL (≈ 2800 µM)	500 µg/mL (≈ 1400 µM)	125 µg/mL (≈ 350 µM)	500 µg/mL (≈ 1400 µM)	500 µg/mL (≈ 1400 µM)	1000 µg/mL (≈ 2800 µM)	
O=C(O)c1cn(C2CC2)c2cc(N3CCNCC3)c(F)cc2c1=O [CIPROFLOXACIN]		50 µg/mL (≈ 151 µM)		50 µg/mL (≈ 151 µM)	25 µg/mL (≈ 75.4 µM)		
O=c1[nH]cnc2c1C(c1ccccc1)c1ccc(O)cc1O2 (stereo not given)	62.5 µg/mL (≈ 214 µM)	500 µg/mL (≈ 1710 µM)	250 µg/mL (≈ 855 µM)	500 µg/mL (≈ 1710 µM)	62.5 µg/mL (≈ 214 µM)	1000 µg/mL (≈ 3420 µM)	
S=c1[nH]c2c(c(=S)[nH]1)C(c1ccccc1)c1c(ccc3ccccc13)O2 (stereo not given)	100 µg/mL (≈ 267 µM)	125 µg/mL (≈ 334 µM)	125 µg/mL (≈ 334 µM)	250 µg/mL (≈ 668 µM)	250 µg/mL (≈ 668 µM)	500 µg/mL (≈ 1340 µM)	
O=c1[nH]cnc2c1C(c1ccccc1)c1ccccc1O2 (stereo not given)	500 µg/mL (≈ 1810 µM)	250 µg/mL (≈ 905 µM)	250 µg/mL (≈ 905 µM)	500 µg/mL (≈ 1810 µM)	250 µg/mL (≈ 905 µM)	500 µg/mL (≈ 1810 µM)	
COC1=CC(=O)C[C@@H](C)[C@]12Oc1c(Cl)c(OC)cc(OC)c1C2=O [GRISEOFULVIN]						100 µg/mL (≈ 283 µM)	
S=c1[nH]c2c(c(=S)[nH]1)C(c1ccccc1)c1ccc3ccccc3c1O2 (stereo not given)	500 µg/mL (≈ 1340 µM)	125 µg/mL (≈ 334 µM)	250 µg/mL (≈ 668 µM)	250 µg/mL (≈ 668 µM)	250 µg/mL (≈ 668 µM)	500 µg/mL (≈ 1340 µM)	
O=c1[nH]cnc2c1C(c1ccccc1)c1c(ccc3ccccc13)O2 (stereo not given)	125 µg/mL (≈ 383 µM)	125 µg/mL (≈ 383 µM)	125 µg/mL (≈ 383 µM)	125 µg/mL (≈ 383 µM)	125 µg/mL (≈ 383 µM)	500 µg/mL (≈ 1530 µM)	
O=c1[nH]cnc2c1C(c1ccccc1)c1ccc3cccnc3c1O2 (stereo not given)	500 µg/mL (≈ 1530 µM)	125 µg/mL (≈ 382 µM)	125 µg/mL (≈ 382 µM)	250 µg/mL (≈ 764 µM)	250 µg/mL (≈ 764 µM)	500 µg/mL (≈ 1530 µM)	
Nc1nc(=O)[nH]c2c1C(c1ccccc1)c1ccccc1O2 (stereo not given)	500 µg/mL (≈ 1720 µM)	125 µg/mL (≈ 429 µM)	62.5 µg/mL (≈ 215 µM)	125 µg/mL (≈ 429 µM)	62.5 µg/mL (≈ 215 µM)	500 µg/mL (≈ 1720 µM)	
Nc1nc(=S)[nH]c2c1C(c1ccccc1)c1ccc(O)cc1O2 (stereo not given)	500 µg/mL (≈ 1550 µM)	500 µg/mL (≈ 1550 µM)	125 µg/mL (≈ 387 µM)	250 µg/mL (≈ 773 µM)	250 µg/mL (≈ 773 µM)	125 µg/mL (≈ 387 µM)	
Nc1nc(=S)[nH]c2c1C(c1ccccc1)c1c(ccc3ccccc13)O2 (stereo not given)	1000 µg/mL (≈ 2800 µM)	250 µg/mL (≈ 699 µM)	500 µg/mL (≈ 1400 µM)	500 µg/mL (≈ 1400 µM)	500 µg/mL (≈ 1400 µM)	1000 µg/mL (≈ 2800 µM)	
Nc1nc(=O)[nH]c2c1C(c1ccccc1)c1ccc(O)cc1O2 (stereo not given)	125 µg/mL (≈ 407 µM)	125 µg/mL (≈ 407 µM)	125 µg/mL (≈ 407 µM)	250 µg/mL (≈ 814 µM)	250 µg/mL (≈ 814 µM)	250 µg/mL (≈ 814 µM)	
NYSTATIN							100 µg/mL
Nc1nc(=O)[nH]c2c1C(c1ccccc1)c1ccc3cccnc3c1O2 (stereo not given)	125 µg/mL (≈ 365 µM)	125 µg/mL (≈ 365 µM)	500 µg/mL (≈ 1460 µM)	125 µg/mL (≈ 365 µM)	500 µg/mL (≈ 1460 µM)	250 µg/mL (≈ 730 µM)	
Nc1nc(=O)[nH]c2c1C(c1ccccc1)c1c(ccc3ccccc13)O2 (stereo not given)	250 µg/mL (≈ 732 µM)	62.5 µg/mL (≈ 183 µM)	500 µg/mL (≈ 1460 µM)	62.5 µg/mL (≈ 183 µM)	250 µg/mL (≈ 732 µM)	250 µg/mL (≈ 732 µM)	
CC1(C)S[C@@H]2[C@H](NC(=O)[C@H](N)c3ccccc3)C(=O)N2[C@H]1C(=O)O [AMPICILLIN]		100 µg/mL (≈ 286 µM)	100 µg/mL (≈ 286 µM)	250 µg/mL (≈ 715 µM)	100 µg/mL (≈ 286 µM)		
Oc1ccc2c(c1)Oc1[nH]c(=S)[nH]c(=S)c1C2c1ccccc1 (stereo not given)	200 µg/mL (≈ 587 µM)	62.5 µg/mL (≈ 184 µM)	250 µg/mL (≈ 734 µM)	62.5 µg/mL (≈ 184 µM)	125 µg/mL (≈ 367 µM)	1000 µg/mL (≈ 2940 µM)	
Nc1nc(=S)[nH]c2c1C(c1ccccc1)c1ccccc1O2 (stereo not given)	500 µg/mL (≈ 1630 µM)	250 µg/mL (≈ 813 µM)	125 µg/mL (≈ 407 µM)	250 µg/mL (≈ 813 µM)	125 µg/mL (≈ 407 µM)	125 µg/mL (≈ 407 µM)	
Nc1nc(=S)[nH]c2c1C(c1ccccc1)c1ccc3cccnc3c1O2 (stereo not given)	500 µg/mL (≈ 1390 µM)	125 µg/mL (≈ 349 µM)	62.5 µg/mL (≈ 174 µM)	250 µg/mL (≈ 697 µM)	62.5 µg/mL (≈ 174 µM)	500 µg/mL (≈ 1390 µM)	
Nc1nc(=O)[nH]c2c1C(c1ccccc1)c1ccc3ccccc3c1O2 (stereo not given)	1000 µg/mL (≈ 2930 µM)	125 µg/mL (≈ 366 µM)	250 µg/mL (≈ 732 µM)	125 µg/mL (≈ 366 µM)	500 µg/mL (≈ 1460 µM)	500 µg/mL (≈ 1460 µM)	
S=c1[nH]c2c(c(=S)[nH]1)C(c1ccccc1)c1ccc3cccnc3c1O2 (stereo not given)	200 µg/mL (≈ 533 µM)	62.5 µg/mL (≈ 166 µM)	125 µg/mL (≈ 333 µM)	62.5 µg/mL (≈ 166 µM)	125 µg/mL (≈ 333 µM)	500 µg/mL (≈ 1330 µM)	
CO[C@H]1/C=C/O[C@@]2(C)Oc3c(C)c(O)c4c(O)c(c(/C=N/N5CCN(C)CC5)c(O)c4c3C2=O)NC(=O)/C(C)=C\C=C\[C@H](C)[C@H](O)[C@@H](C)[C@@H](O)[C@@H](C)[C@H](OC(C)=O)[C@@H]1C [RIFAMPIN]	40 µg/mL (≈ 48.6 µM)						
O=c1[nH]cnc2c1C(c1ccccc1)c1ccc3ccccc3c1O2 (stereo not given)	125 µg/mL (≈ 383 µM)	62.5 µg/mL (≈ 192 µM)	250 µg/mL (≈ 766 µM)	62.5 µg/mL (≈ 192 µM)	125 µg/mL (≈ 383 µM)	1000 µg/mL (≈ 3060 µM)	
